Results on three compounds are retold here after article PMC12322260, “Anticancer activity of triterpene glycosides from the sea star Solaster pacificus” (Scientific Reports, 2025).

Molecules are shown by their SMILES. Values joined by “and” are separate entries in the source; they are usually repeats but may differ in a detail not shown here. Equal entries are not always repeated.

As usually defined, the IC50 is the midpoint of a concentration-inhibition curve. Higher therefore signals a need for much substance.

What all share (format): cell-based, human
Assay [1] has as its system 22Rv1 cells. Description: Drug combination MTT assay, SynergyFinder ZIP analysis. To be noted: 22Rv1, 48 h. The protocol: (§1) Fig. 5 Effects of CuC1 in combination with taxanes and platinum agents. PC3-DR and 22Rv1 cells were co-treated with cisplatin (Cis), carboplatin (Carbo), docetaxel (Doce), or cabazitaxel (Caba) in combination with CuC1 at the indicated concentrations for 48 h. Cellular viability was evaluated using the MTT assay (number of biological replicates n = 3.) and is represented in the Supplementary Table S2. The cytotoxic effects were further analyzed, and 3D heat maps were constructed using SynergyFinder 3.0 software. The drug effects in combination (synergistic, additive, or antagonistic) were analyzed and visualized using the ZIP algorithm and are indicated by δ-score. δ > 10: Synergistic interactions (dark red area); […]: additive effect; δ < − 10: Antagonistic interactions (dark green area). A ZIP synergy score represents a mean δ overall the concentration range used.
(§2) The effect of combinational treatment with established chemotherapies was evaluated as previously reported^54. In brief, cells were exposed to individual drugs of their combinations for 48 h, and the viability was measured by MTT assay and was then analyzed using SynergyFinder 3.0 software (https://synergyfinder.fimm.fi) and the ZIP score algorithm. Statistical analysis was conducted automatically by the software using its inbuilt algorythms based on the input data type and size.

Assay [2] relates to PC3-DR cells. The assay is described as above. The settings on record: 48 h. Here is the method:
as §1, §2

Assay [3] relates to non-cancer PNT2, RWPE-1, HEK293T, MRC-9 cells vs cancer PC3, 22Rv1, DU145, VCaP, LNCaP cells. Description: Selectivity index from MTT IC50 values. To be noted: [mean IC50 in non-cancer cells] / [mean IC50 in cancer cells]; Doce IC50 in PNT2 and MRC-9 assumed 500 nM.
For the next assay, the system named is MRC-9 cells. Nature of the assay: MTT cytotoxicity assay. The settings on record: MRC-9, 48 h, mean ± SD. The text has this: (§3) The cell lines were purchased from ATCC (Manassas, VA, USA) or ECACC (Salisbury, UK). The following cell lines were used: Human prostate cancer cells LNCaP (ATCC; RRID:CVCL_0395), VCaP (ECACC; RRID:CVCL_2235), 22Rv1 (ATCC; RRID:CVCL_1045), PC3 (ATCC; RRID:CVCL_0035), and DU145 (ATCC; RRID:CVCL_0105); human prostate non-cancer cells PNT2 (ATCC; RRID:CVCL_2164) and RWPE-01 (ATCC; RRID:CVCL_3791). Human non-cancer embryonic kidney cells HEK293T (ECACC; RRID:CVCL_0063) and human fibroblast cells MRC-9 (ECACC; RRID:CVCL_2629). The docetaxel-resistant cells PC3-DR were generated by long-term treatment of human prostate cancer PC3 cells with sublethal concentrations of docetaxel as previously described[32] and were provided by Prof. Z. Culig (Innsbruck Medical University, Austria). All cell lines were recently authenticated by a commercial service (Multiplexion GmbH, Heidelberg, Germany) and were cultured as previously described[58],[59]. Cells were kept in culture for a maximum of three months and were routinely examined for bacterial, fungal, and mycoplasma infections.
On the technique in general: Tetrazolium assays rely on reduction of a dye to a coloured formazan, in cell work by metabolically active cells.

In another assay the test system is DU145 cells. Description: MTT cytotoxicity assay. To be noted: DU145, 48 h, mean ± SD.
Excerpt: as §3

In a further assay the test system is LNCaP cells. Nature of the assay: MTT cytotoxicity assay. To be noted: 48 h, mean ± SD.
Excerpt: as §3

Assay [4] relates to 22Rv1 cells. Nature of the assay: MTT cytotoxicity assay. The settings on record: 22Rv1, 48 h, mean ± SD.
Excerpt: as §3

The subject of assay [5] is PC3-DR cells. Nature of the assay: MTT cytotoxicity assay. The settings on record: 48 h, mean ± SD.
Excerpt: as §3

The subject of a further assay is HEK293T cells. Description: MTT cytotoxicity assay. The settings on record: 48 h, mean ± SD.
Excerpt: as §3

Another assay concerns PC3 cells. Description: MTT cytotoxicity assay. The settings on record: PC3, 48 h, mean ± SD.
Excerpt: as §3

A further assay concerns PNT2 cells. Description: MTT cytotoxicity assay. To be noted: PNT2, 48 h, mean ± SD.
Excerpt: as §3

The test system of the next assay is RWPE-1 cells. Nature of the assay: MTT cytotoxicity assay. The settings on record: RWPE-1, 48 h, mean ± SD.
Excerpt: as §3

Another assay concerns VCaP cells. Nature of the assay: MTT cytotoxicity assay. To be noted: 48 h, mean ± SD.
Excerpt: as §3

In the case of `CO[C@H]1C(=O)[C@]2(C)[C@@H](OC)C[C@H]3OC[C@@]3(OC(C)=O)[C@H]2[C@H](OC(=O)c2ccccc2)[C@]2(O)C[C@H](OC(=O)[C@H](O)[C@@H](NC(=O)OC(C)(C)C)c3ccccc3)C(C)=C1C2(C)C` [Caba, cabazitaxel], the “Response (% of effect)” value in the assay on 22Rv1 cells [1] (Caba 0.25 nM alone) is 3.714%; with 22Rv1 cells [1] (Caba 0.5 nM alone), 20.36% and 24.57%; with 22Rv1 cells [1] (Caba 1 nM alone), 27.6928% and 30.03%; with 22Rv1 cells [1] (Caba 2 nM alone), 32.86% and 33.2%; in the assay with PC3-DR cells [2] (Caba 12.5 nM alone), 26.4286% and 23.41%; in the assay with PC3-DR cells [2] (Caba 25 nM alone) it was 28.07% and 33.73%. For the same compound, the “Response (% of effect)” value in the assay with PC3-DR cells [2] (Caba 50 nM alone) was 43.53% and 46.12%; in the assay with PC3-DR cells [2] (Caba 100 nM alone), 53.45% and 58.01%.
For `N.N.O=C([O-])C1(C(=O)[O-])CCC1.[Pt+2]` [Carbo, carboplatin], the “Response (% of effect)” value with 22Rv1 cells [1] (Carbo 12.5 μM alone) is 0.01% and 4.629%; in the assay on 22Rv1 cells [1] (Carbo 25 μM alone) it was 11.3613% and 13.96%; in the assay on 22Rv1 cells [1] (Carbo 50 μM alone), 22.27% and 31.0235%; in the assay with 22Rv1 cells [1] (Carbo 100 μM alone), 32.94% and 38.66%; with PC3-DR cells [2] (Carbo 6.25 μM alone), 0.01% and 9.352%; with PC3-DR cells [2] (Carbo 12.5 μM alone), 6.12% and 8.386%.
For `N.N.[Cl][Pt][Cl]` [Cis, cisplatin], the “Response (% of effect)” value with 22Rv1 cells [1] (Cis 2.5 μM alone) is 17.58% and 11.05%; in the assay on 22Rv1 cells [1] (Cis 5 μM alone), 26.89% and 27.91%; in the assay on 22Rv1 cells [1] (Cis 10 μM alone), 40.95% and 37.6%; with PC3-DR cells [2] (Cis 1.25 μM alone), 12.8% and 15.79%; in the assay with PC3-DR cells [2] (Cis 2.5 μM alone), 18.7% and 21.63%; in the assay with PC3-DR cells [2] (Cis 5 μM alone), 29.8412% and 29.49%. The “Response (% of effect)” value in the assay on PC3-DR cells [2] (Cis 10 μM alone) was 50.19% and 51.55%. In assay [3], the “Selectivity index (SI)” value amounted to 0.88. Besides, the 50% inhibitory concentration (IC50) was determined as 6.75 ± 2.15 µM with MRC-9 cells; 1.32 ± 0.31 µM in the assay on DU145 cells; 2.75 ± 0.39 µM in the assay with LNCaP cells; 0.993 ± 0.2 µM with 22Rv1 cells [4]; 6.89 ± 2.29 µM with PC3-DR cells [5]; 6.44 ± 0.65 µM in the assay with HEK293T cells. The half-maximal inhibitory concentration (IC50) in the assay with PC3 cells is 34.6 ± 6.62 µM; in the assay on PNT2 cells, 9.41 ± 1.82 µM; with RWPE-1 cells it was 9.02 ± 1.52 µM; in the assay with VCaP cells it was 5.02 ± 2.73 µM.
